The record followed here is patent US20170233413A1, “SUBSTITUTED ANNULATED PYRIMIDINES AND USE THEREOF” (Bayer Pharma Aktiengesellschaft, priority 2014, published 2017).

Usually IC50 stands for the concentration needed to halve the response being measured. Read a high IC50 as weaker potency in that assay.

Test [1] addresses T1, recombinant guanylate cyclase reporter cell line (Rattus norvegicus, UniProt P19686+P20595).
T1 construct: expressed in transfected cells
T1 sequence (P19686 1-690): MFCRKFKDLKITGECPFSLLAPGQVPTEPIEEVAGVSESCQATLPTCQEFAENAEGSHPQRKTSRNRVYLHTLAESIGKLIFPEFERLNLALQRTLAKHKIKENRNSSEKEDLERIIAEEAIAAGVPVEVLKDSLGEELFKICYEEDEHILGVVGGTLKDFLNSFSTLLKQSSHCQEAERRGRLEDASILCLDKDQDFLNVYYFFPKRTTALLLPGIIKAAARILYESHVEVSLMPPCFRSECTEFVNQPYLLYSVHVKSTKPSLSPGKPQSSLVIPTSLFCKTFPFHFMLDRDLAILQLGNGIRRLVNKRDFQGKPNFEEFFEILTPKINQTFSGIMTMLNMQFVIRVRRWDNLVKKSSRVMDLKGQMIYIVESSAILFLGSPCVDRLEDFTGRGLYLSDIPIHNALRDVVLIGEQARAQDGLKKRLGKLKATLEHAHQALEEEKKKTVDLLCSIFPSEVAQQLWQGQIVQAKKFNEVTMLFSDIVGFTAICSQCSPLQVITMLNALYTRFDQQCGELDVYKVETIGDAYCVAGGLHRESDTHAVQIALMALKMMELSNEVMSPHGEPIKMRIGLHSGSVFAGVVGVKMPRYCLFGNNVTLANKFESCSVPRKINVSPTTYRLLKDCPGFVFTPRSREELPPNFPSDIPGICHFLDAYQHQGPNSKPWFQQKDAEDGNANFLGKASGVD
T1 sequence (P20595 1-619): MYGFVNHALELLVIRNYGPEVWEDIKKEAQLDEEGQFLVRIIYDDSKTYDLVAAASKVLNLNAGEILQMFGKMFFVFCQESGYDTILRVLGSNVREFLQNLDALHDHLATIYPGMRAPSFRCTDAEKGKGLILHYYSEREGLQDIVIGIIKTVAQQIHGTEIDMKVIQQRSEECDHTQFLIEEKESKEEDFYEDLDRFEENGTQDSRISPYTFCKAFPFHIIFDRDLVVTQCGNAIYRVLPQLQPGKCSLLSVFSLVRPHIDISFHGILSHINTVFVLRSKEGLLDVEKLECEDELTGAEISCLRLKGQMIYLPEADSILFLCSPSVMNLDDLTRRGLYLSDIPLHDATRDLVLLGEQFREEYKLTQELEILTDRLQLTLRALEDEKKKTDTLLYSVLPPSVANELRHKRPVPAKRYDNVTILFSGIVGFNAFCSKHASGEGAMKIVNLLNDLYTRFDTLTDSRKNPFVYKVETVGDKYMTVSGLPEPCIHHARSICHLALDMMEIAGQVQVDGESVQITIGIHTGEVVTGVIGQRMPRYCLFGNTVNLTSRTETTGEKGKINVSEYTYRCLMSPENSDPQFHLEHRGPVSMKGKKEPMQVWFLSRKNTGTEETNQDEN
Kind of test: Effect on a recombinant guanylate cyclase reporter cell line. As to conditions: MEC = minimum effective concentration; in some cases means of individual determinations. The test is classed as cell-based. In outline:
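Values are reported as MEC, sometimes averaged over individual determinations. The test system is a reporter cell line expressing recombinant rat guanylate cyclase.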

Test [2] concerns the target T2, human phosphodiesterase 5 (PDE 5) (Homo sapiens, UniProt O76074).
T2 construct: PDE 5 preparations are obtained from human platelets by disruption; from tissue; host or cells: human platelets
Kind of test: Inhibition of human phosphodiesterase 5 (PDE 5). To be noted: PDE 5 preparation from human platelets; in some cases means of individual determinations. The test is classed as biochemical. In outline:
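IC50 comes from percent inhibition over a 1:3 series with final levels of 4 to 0.0018 μM. Reaction: tritiated cGMP tracer (0.025 μCi) with platelet-derived, Mono Q-purified enzyme, 1 h at room temperature in Tris pH 7.5, under 70% turnover. Read-out by scintillation proximity beads.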

For the compound `CC1(C)C(=O)Nc2nc(-c3nn(Cc4ccccc4F)c4ncccc34)nc(C(=O)NCCSC(F)(F)F)c21` [Example 73, 2-[1-(2-fluorobenzyl)-1H-pyrazolo[3,4-b]pyridin-3-yl]-5,5-dimethyl-6-oxo-N-{2-[(trifluoromethyl)sulfanyl]ethyl}-6,7-dihydro-5H-pyrrolo[2,3-d]pyrimidine-4-carboxamide], in test [1], the MEC was 0.3 µM. Besides, in test [2], the IC50 worked out at 52 nM.
`COCCNC(=O)c1nc(-c2nn(Cc3cccc(F)c3F)c3nc(C)c(F)cc23)nc2c1C(C)(C)C(=O)N2` [Example 41]: in test [1], the MEC amounted to 0.065 µM. In test [2], the midpoint of inhibition, the IC50, lay at 88 nM.
Regarding `CC1(C)C(=O)Nc2nc(-c3nn(Cc4ccccc4F)c4ncc(F)cc34)nc(C(=O)NCC3CC3)c21` [Example 49], in test [1], the MEC is 0.1 µM. The compound also showed an IC50 in test [2] of 33 nM.
`Cc1nnc(NC(=O)c2nc(-c3nn(Cc4ccccc4F)c4ncccc34)nc3c2C(C)(C)C(=O)N3)o1` [Example 71, 2-[1-(2-fluorobenzyl)-1H-pyrazolo[3,4-b]pyridin-3-yl]-5,5-dimethyl-N-(5-methyl-1,3,4-oxadiazol-2-yl)-6-oxo-6,7-dihydro-5H-pyrrolo[2,3-d]pyrimidine-4-carboxamide]: the MEC in test [1] stood at 0.3 µM. In test [2], this compound showed an IC50 of 170 nM.
For `CC1(C)C(=O)Nc2nc(-c3nn(Cc4ccccc4F)c4ncc(F)cc34)nc(C(=O)NCC3(O)CC3)c21` [Example 27, 2-[5-Fluoro-1-(2-fluorobenzyl)-1H-pyrazolo[3,4-b]pyridin-3-yl]-N-[(1-hydroxycyclopropyl)methyl]-5,5-dimethyl-6-oxo-6,7-dihydro-5H-pyrrolo[2,3-d]pyrimidine-4-carboxamide], the MEC in test [1] was found to be 0.1 µM. For the same compound, 51 nM corresponded to half-maximal inhibition in test [2] (IC50).
The like results for `CC1(C)C(=O)Nc2nc(-c3nn(Cc4ccccc4F)c4ncccc34)nc(C(N)=O)c21` [Example 1, 2-[1-(2-Fluorobenzyl)-1H-pyrazolo[3,4-b]pyridin-3-yl]-5,5-dimethyl-6-oxo-6,7-dihydro-5H-pyrrolo[2,3-d]pyrimidine-4-carboxamide] were, in that order, 0.065 µM and 20 nM.
Consider `CC(NC(=O)c1nc(-c2nn(Cc3ccccc3F)c3ncccc23)nc2c1C(C)(C)C(=O)N2)C1CC1` (racemic) [Example 104, rac-N-(1-cyclopropylethyl)-2-[1-(2-fluorobenzyl)-1H-pyrazolo[3,4-b]pyridin-3-yl]-5,5-dimethyl-6-oxo-6,7-dihydro-5H-pyrrolo[2,3-d]pyrimidine-4-carboxamide], for which, in test [1], the MEC came to 0.1 µM. In addition, the IC50 in test [2] came out at 11 nM.
Consider `CC1(C)C(=O)Nc2nc(-c3nn(Cc4ccccc4F)c4ncccc34)nc(C(=O)NCC3CCCC3)c21` [Example 92, N-(cyclopentylmethyl)-2-[1-(2-fluorobenzyl)-1H-pyrazolo[3,4-b]pyridin-3-yl]-5,5-dimethyl-6-oxo-6,7-dihydro-5H-pyrrolo[2,3-d]pyrimidine-4-carboxamide], for which the MEC in test [1] turned out to be 0.3 µM. The compound also gave an IC50 in test [2] of 35 nM.
With `CC1(C)C(=O)Nc2nc(-c3nn(Cc4ccccc4F)c4cc(Cl)ccc34)nc(C(=O)NC3CC3)c21` [Example 43], in test [1], the MEC came out at 0.3 µM. In test [2], this compound showed an IC50 of 14 nM.
The like results for `CC1(C)C(=O)Nc2nc(-c3nn(Cc4ccccc4F)c4ncccc34)nc(C(=O)Nc3cncc(F)c3)c21` [Example 107, 2-[1-(2-fluorobenzyl)-1H-pyrazolo[3,4-b]pyridin-3-yl]-N-(5-fluoropyridin-3-yl)-5,5-dimethyl-6-oxo-6,7-dihydro-5H-pyrrolo[2,3-d]pyrimidine-4-carboxamide] were, in that order, 0.3 µM and 73 nM.
In the same order, the values of `CC1(C)C(=O)Nc2nc(-c3nn(Cc4ccccc4F)c4ncccc34)nc(C(=O)Nc3cc(F)c(F)c(F)c3)c21` [Example 77, 2-[1-(2-fluorobenzyl)-1H-pyrazolo[3,4-b]pyridin-3-yl]-5,5-dimethyl-6-oxo-N-(3,4,5-trifluorophenyl)-6,7-dihydro-5H-pyrrolo[2,3-d]pyrimidine-4-carboxamide] are 1 µM and 87 nM.
As for `Cc1nc2c(cc1F)c(-c1nc3c(c(C(N)=O)n1)C(C)(C(F)(F)F)C(=O)N3)nn2Cc1ncccc1F` (single isomer, unassigned; ent-2) [Example 20, ent-2-{5-Fluoro-1-[(3-fluoropyridin-2-yl)methyl]-6-methyl-1H-pyrazolo[3,4-b]pyridin-3-yl}-5-methyl-6-oxo-5-(trifluoromethyl)-6,7-dihydro-5H-pyrrolo[2,3-d]pyrimidine-4-carboxamide (enantiomer B)], the MEC in test [1] amounted to 1 µM. The compound further had an IC50 in test [2] of 190 nM.
The like results for `Cc1nc2c(cc1F)c(-c1nc3c(c(C(N)=O)n1)C(C)(C(F)(F)F)C(=O)N3)nn2Cc1c(F)ccc(F)c1F` (single isomer, unassigned; ent-2) [Example 16, ent-2-[5-Fluoro-6-methyl-1-(2,3,6-trifluorobenzyl)-1H-pyrazolo[3,4-b]pyridin-3-yl]-5-methyl-6-oxo-5-(trifluoromethyl)-6,7-dihydro-5H-pyrrolo[2,3-d]pyrimidine-4-carboxamide (enantiomer A)] were, in that order, 0.17 µM and 170 nM.
The like results for `CC[C@H](C)NC(=O)c1nc(-c2nn(Cc3ccccc3F)c3ncccc23)nc2c1C(C)(C)C(=O)N2` [Example 134, N-[(2S)-butan-2-yl]-2-[1-(2-fluorobenzyl)-1H-pyrazolo[3,4-b]pyridin-3-yl]-5,5-dimethyl-6-oxo-6,7-dihydro-5H-pyrrolo[2,3-d]pyrimidine-4-carboxamide] were, in that order, 0.3 µM and 13 nM.
In the same order, the values of `CC1(C)C(=O)Nc2nc(-c3nn(Cc4ccccc4F)c4ncccc34)nc(C(=O)NCC3CCOC3)c21` (racemic) [Example 99, rac-2-[1-(2-fluorobenzyl)-1H-pyrazolo[3,4-b]pyridin-3-yl]-5,5-dimethyl-6-oxo-N-(tetrahydrofuran-3-ylmethyl)-6,7-dihydro-5H-pyrrolo[2,3-d]pyrimidine-4-carboxamide] are 0.3 µM and 31 nM.
Turning to `CC1(C)C(=O)Nc2nc(-c3nn(Cc4ccccc4F)c4cc(Cl)ccc34)nc(C(=O)NCCC(F)(F)F)c21` [Example 45], the MEC in test [1] worked out at 0.3 µM. In addition, 130 nM corresponded to half-maximal inhibition in test [2] (IC50).
